Assay [1] addresses T1, human androgen receptor (AR) (Homo sapiens, UniProt P10275).
T1 construct: expressed in transfected cells; host or cells: mouse myoblast C2C12 cells, transiently co-transfected
T1 sequence (P10275 1-920): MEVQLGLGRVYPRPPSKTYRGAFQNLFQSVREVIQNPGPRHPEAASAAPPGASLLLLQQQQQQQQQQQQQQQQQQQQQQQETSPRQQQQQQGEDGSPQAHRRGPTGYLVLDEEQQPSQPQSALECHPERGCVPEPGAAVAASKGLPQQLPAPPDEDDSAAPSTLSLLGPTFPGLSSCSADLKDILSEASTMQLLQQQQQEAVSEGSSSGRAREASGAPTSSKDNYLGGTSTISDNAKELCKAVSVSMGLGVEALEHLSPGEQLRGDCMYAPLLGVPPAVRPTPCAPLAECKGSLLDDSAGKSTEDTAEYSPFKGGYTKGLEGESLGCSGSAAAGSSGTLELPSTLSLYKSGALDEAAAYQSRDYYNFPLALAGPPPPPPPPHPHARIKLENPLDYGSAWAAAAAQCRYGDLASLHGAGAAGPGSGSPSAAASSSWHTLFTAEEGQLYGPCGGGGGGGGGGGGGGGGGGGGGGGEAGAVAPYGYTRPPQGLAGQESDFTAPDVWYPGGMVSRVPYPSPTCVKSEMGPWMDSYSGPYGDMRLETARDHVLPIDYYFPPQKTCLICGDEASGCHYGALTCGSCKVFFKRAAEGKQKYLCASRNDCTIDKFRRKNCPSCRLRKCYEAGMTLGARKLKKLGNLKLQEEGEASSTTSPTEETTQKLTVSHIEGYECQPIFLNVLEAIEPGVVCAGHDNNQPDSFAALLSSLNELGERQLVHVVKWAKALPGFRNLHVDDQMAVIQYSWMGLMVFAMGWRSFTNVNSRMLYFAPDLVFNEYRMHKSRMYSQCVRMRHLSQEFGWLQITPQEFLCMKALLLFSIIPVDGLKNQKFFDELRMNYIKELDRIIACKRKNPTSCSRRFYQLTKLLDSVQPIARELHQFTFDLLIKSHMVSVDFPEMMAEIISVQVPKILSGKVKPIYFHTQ
The assay can be described thus: C2C12 AR/ARE reporter assay. The assay is classed as cell-based. On the procedure: As an indicator of agonist activity in muscle tissue, the C2C12 AR/ARE reporter assay is performed. Briefly, mouse myoblast C2C12 cells are co-transfected using FuGENE™. […] Cells are transfected in T150 cm^2 flasks in DMEM media with 4% or 10% Fetal Bovine Serum […]. After a 5 hour incubation, transfected cells are trypsinized, plated in 96 well dishes in DMEM media containing 10% charcoal-stripped FBS, incubated for 2 h and then exposed to various concentrations of test compounds ranging from about 0.01 nM to 10 μM. After 48 h of incubations with compounds, cells are lysed and luciferase activity is determined using standard techniques. Data is fit to a 4 parameter-fit logistics to determine EC50 values. The % efficacy is determined versus maximum stimulation obtained with 10 nM methyltrienolone. […]

Assay [2] deals with T2, human AR (androgen receptor) (Homo sapiens, UniProt P10275).
T2 construct: expressed in transfected cells; host or cells: 293 cells (293-AR lysate)
T2 sequence (P10275 1-920): T1 sequence (P10275 1-920)
Kind of assay: Steroid hormone nuclear receptor binding assay, AR binding. The protocol:
Cell lysates from 293 cells overexpressing human GR (glucocorticoid receptor), AR (androgen receptor), MR (mineralocorticoid receptor) or PR (progesterone receptor) are used for competition binding assays to determine Ki values for test compounds. […] Competing compounds are added at various concentrations ranging from about 0.01 nM to 10 μM. Non-specific binding is determined in the presence of 500 nM dexamethasone for GR binding, 500 nM aldosterone for MR binding, or 500 nM methyltrienolone for AR and PR binding. The binding reaction (140 μl) is incubated for overnight at 4° C., then 70 μl of cold charcoal-dextran buffer (containing per 50 ml of assay buffer, 0.75 g of charcoal and 0.25 g of dextran) is added to each reaction. Plates are mixed 8 minutes on an orbital shaker at 4° C. Plates are then centrifuged at 3,000 rpm at 4° C. for 10 minutes. An aliquot of 120 μl of the mix is transferred to another 96-well plate and 175 μl of Wallac Optiphase “Hisafe 3” scintillation fluid is added to each well. Plates are sealed and shaken vigorously on an orbital shaker. After an incubation of 2 hrs, plates are read in a Wallac Microbeta counter. […] The Kd for ^3H-dexamethasone for GR binding, ^3H-methyltrienolone for AR binding, ^3H-aldosterone for MR binding, or ^3H-methyltrienolone for PR binding, is determined by saturation binding. The IC50 values for test compounds are converted to Ki using Cheng-Prusoff equation and the Kd determined by saturation binding assay. […]

[3] abbreviates: C2C12, read-out: C2C12 % Efficacy.
Setting [4] is: C2C12 AR/ARE reporter assay, average of n trials, read-out: C2C12 % Efficacy.
The mark [5] stands for this setting: C2C12 AR/ARE reporter assay, average of n trials, read-out: C2C12 EC50.
[6] abbreviates: average of n trials, read-out: AR binding Ki.

Like-named read-outs stand apart in the source and are kept apart here.

As to `CC(C)C(=O)N[C@@H]1CCc2c(c3cc(C#N)ccc3n2Cc2ccccc2N)C1` (single isomer, unassigned) [Example 110, R-N-[9-(2-Amino-benzyl)-6-cyano-2,3,4,9-tetrahydro-1H-carbazol-3-yl]-isobutyramide], the EC50 (usually the concentration that produces a half-maximal response) in assay [1] was 1.8 nM. For the same molecule, the Emax in assay [1] (setting [3]) stood at 110%. Besides, in assay [2], the Ki (in general, the dissociation constant of the complex between target and ligand, obtained from inhibition or displacement) was determined as 4.8 nM.
Turning to `CC(C)C(=O)N[C@H]1CCc2c(c3cc(C#N)ccc3n2Cc2ccccc2N)C1` (single isomer, unassigned) [Example 111, S-N-[9-(2-Amino-benzyl)-6-cyano-2,3,4,9-tetrahydro-1H-carbazol-3-yl]-isobutyramide], the EC50 in assay [1] came out at 55.2 nM. The Emax in assay [1] (setting [3]) amounted to 111%. For the same molecule, the affinity in assay [2] corresponds to a Ki of 127 nM.
For `COc1cccc(Cn2c3c(c4cc(F)ccc42)CC(NC(=O)C(C)C)CC3)c1` (stereo not drawn) [Example 10], the Emax in assay [1] (setting [3]) was 40.4%.
On to `CC(C)C(=O)NC1CCc2c(c3cc(Br)ccc3n2Cc2cccc(F)c2)C1` (stereo not drawn) [Example 35, N-[6-bromo-9-(3-fluoro-benzyl)-2,3,4,9-tetrahydro-1H-carbazol-3-yl]-isobutyramide], for which, in assay [1], a half-maximal response (EC50) required 2.3 nM. The Emax in assay [1] (setting [3]) was found to be 74.1%. The molecule further had an inhibition constant (Ki) in assay [2] of 2.6 nM.
`CC(C)C(=O)NC1CCc2c(c3cc([N+](=O)[O-])ccc3n2Cc2cccc(F)c2)C1` (stereo not drawn) [Example 61, N-[9-(3-Fluorobenzyl)-6-nitro-2,3,4,9-tetrahydro-1H-carbazol-3-yl]isobutyramide] yielded a 50% effective concentration (EC50) in assay [1] of 3.6 nM. In addition, the Emax in assay [1] (setting [3]) turned out to be 83.2%. Moreover, the affinity in assay [2], expressed as Ki, was 2.3 nM.
Regarding `CC(C)C(=O)NC1CCc2c(c3cc(N(C)C)ccc3n2Cc2cccc(F)c2)C1` (stereo not drawn) [Example 62, N-[6-Dimethylamino-9-(3-fluoro-benzyl)-2,3,4,9-tetrahydro-1H-carbazol-3-yl]-isobutyramide], a half-maximal effect in assay [1] (EC50) was put at 369 nM. In addition, in assay [1] (setting [3]), the Emax was found to be 56.1%. For the same molecule, affinity in assay [2] was put at a Ki of 110 nM.
`CC(C)C(=O)NC1CCc2c(c3cc(C(N)=S)ccc3n2Cc2cccc(F)c2)C1` (stereo not drawn) [Example 64, N-(9-(3-Fluorobenzyl)-6-thiocarbamoyl-2,3,4,9-tetrahydro-1H-carbazol-3-yl)isobutyramide]: the Emax in assay [1] (setting [4]) was determined as 89.3%. Further, the EC50 in assay [1] (setting [5]) was 9.3 nM. In assay [2] (setting [6]), the inhibitory constant (Ki) was 14.5 nM.
As for `CCC(=O)NC1CCc2c(c3cc(OC)ccc3n2Cc2ccccc2)C1` (stereo not drawn) [Example 66, N-(9-Benzyl-6-methoxy-2,3,4,9-tetrahydro-1H-carbazol-3-yl)-propionamide], the Emax in assay [1] (setting [4]) was determined as 79.8%. In addition, the EC50 in assay [1] (setting [5]) turned out to be 19.2 nM. Also, in assay [2] (setting [6]), the Ki is 6.9 nM.
Consider `COc1ccc2c(c1)c1c(n2Cc2ccccc2)CCC(NC(=O)C(C)C)C1` (stereo not drawn) [Example 67, N-(9-Benzyl-6-methoxy-2,3,4,9-tetrahydro-1H-carbazol-3-yl)-isobutyramide], for which, in assay [1], the EC50 was 18.6 nM. Further, the Emax in assay [1] (setting [3]) was 96.9%. The molecule also gave a Ki in assay [2] of 6.2 nM.
Taken in the same sequence, the figures for `COc1ccc2c(c1)c1c(n2Cc2ccccc2)CCC(NC(=O)C2CC2)C1` (stereo not drawn) [Example 68, Cyclopropanecarboxylic acid (9-benzyl-6-methoxy-2,3,4,9-tetrahydro-1H-carbazol-3-yl)-amide] were 40.8 nM, 98% and 46.2 nM.
Take `COc1ccc2c(c1)c1c(n2Cc2ccccc2OC)CCC(NC(=O)C(C)C)C1` (stereo not drawn) [Example 72]: the Emax in assay [1] (setting [3]) worked out at 66.4%.
Turning to `COc1ccc(Cn2c3c(c4cc(OC)ccc42)CC(NC(=O)C(C)C)CC3)cc1` (stereo not drawn) [Example 74], the Emax in assay [1] (setting [3]) is 22.6%.
For `COc1ccc2c(c1)c1c(n2Cc2ccc(F)cc2)CCC(NC(=O)C(C)C)C1` (stereo not drawn) [Example 80], the Emax in assay [1] (setting [3]) turned out to be 59.9%.
For `COC(=O)c1cccc(Cn2c3c(c4cc(Cl)ccc42)CC(NC(=O)C(C)C)CC3)c1` (stereo not drawn) [Example 84], in assay [1] (setting [3]), the Emax was 32.9%.
`CC(C)C(=O)NC1CCc2c(c3cc(C#N)ccc3n2Cc2cccc([N+](=O)[O-])c2)C1` (stereo not drawn) [Example 88, N-[6-cyano-9-(3-nitro-benzyl)2,3,4,9-tetrahydro-1H-carbazol-3-yl]-isobutyramide]: the Emax in assay [1] (setting [3]) worked out at 96.1%.

Source of the values: US7935722B2 (Eli Lilly and Company, priority 2005, dated 2011).
